pIC50: −log10 of the molar value.
system: phosphorylation of CHK2 (phospho-Thr68) in HCT116 cells; assay: Cellular pCHK2 assay (bleomycin-induced phosphorylation of CHK2 phospho-Thr68, immunofluorescence high content); format: cell-based, human; settings: 10 μM bleomycin, 4 h
Excerpt: For the identification of substances which inhibit the phosphorylation of the protein kinase CHK2 at the amino acid threonine 68, an immunofluorescence-based “high content” analysis assay was used in HCT116 cells.
In vitro cell-based immunofluorescence assay for the identification of inhibitors of bleomycin-induced phosphorylation of CHK2 (phospho-Thr68) in the human colon carcinoma cell line HCT116:
HCT116 cells are sown out in a defined cell density in 384-well plates in culture medium (DMEM high glucose, 2 mM GlutaMax, 1 mM Na pyruvate, 10% FCS) and incubated overnight at 37° C. and 10% of CO2. On the following day, the test substances are added in a defined concentration range (1 nM to 30 μM) in combination with 10 μM bleomycin, where the concentration of the solvent DMSO is kept constant at 0.5%. […] Parallel staining of DNA with propidium iodide enables determination of the cell count. The pCHK2 signal is detected using a high-content imager (Molecular Devices IMX Ultra) and automatic image analysis using the MetaXpress software belonging to the instrument. The number of cell nuclei which have a pCHK2 signal above a defined background is determined.

SMILES | pIC50
COc1cc2ncc3c(c2cc1-c1cnn(C)c1)n(-c1cnn(C)c1)c(=O)n3C [Compound Example 23, 7-Methoxy-3-methyl-1,8-bis-(1-methyl-1H-pyrazol-4-yl)-1,3-dihydroimidazo[4,5-c] quinolin-2-one] | > 6.70
COc1cc2ncc3c(c2cc1-c1cn[nH]c1)n(-c1ccncc1C)c(=O)n3C [Compound Example 19, 7-Methoxy-3-methyl-1-(3-methylpyridin-4-yl)-8-(1 H-pyrazol-4-yl)-1,3-dihydro-imidazo[4,5-c]quinolin-2-one] | > 6.70
COc1cc2ncc3c(c2cc1-c1cnn(C)c1)n(-c1c(C)n[nH]c1C)c(=O)n3C [Example 118, 1-(3,5-Dimethyl-1H-pyrazol-4-yl)-7-methoxy-3-methyl-8-(1-methyl-1H-pyrazol-4-yl)-1,3-dihydroimidazo[4,5-c]-quinolin-2-one] | 6.00 to 6.70
